Test results taken from patent publication US20250145665A1, “MACROCYCLIC PEPTIDES USEFUL AS MODULATORS OF TNF ALPHA” (Bristol-Myers Squibb Company, priority 2023, published 2025).
Starred links: 1 amine or outer side, 2 acyl side, 3 side chain; linkers in the order of their positions; H or OH if unused. Positions of bridges follow the written chain, without caps; N, C: chain ends. Non-standard residues stand in square brackets, D forms with d. Residues, ends and D or L forms follow the SMILES beside them. *: point of attachment. Bip(4'-NHCO-C6H4-4-CH2COOH) = N[C@@H](Cc1ccc(-c2ccc(NC(=O)c3ccc(CC(=O)O)cc3)cc2)cc1)C(=O)O; X5 = Cn1nc(C(=O)Nc2ccc(-c3ccc(C[C@H](N[*:1])C(=O)[*:2])cc3)cc2)c2ccccc21; dArg(ω-(2S)-2,3-diOHpropyl) = N=C(NCCC[C@@H](N)C(=O)O)NC[C@H](O)CO; Bip(4'-NH) = O=C([C@H](Cc1ccc(-c2ccc(N[*:3])cc2)cc1)N[*:1])[*:2]; Bip(4'-CONHMe) = CNC(=O)c1ccc(-c2ccc(C[C@H](N)C(=O)O)cc2)cc1; Bip(4'-COOH) = N[C@@H](Cc1ccc(-c2ccc(C(=O)O)cc2)cc1)C(=O)O; Bip(4'-NHAc) = CC(=O)Nc1ccc(-c2ccc(C[C@H](N)C(=O)O)cc2)cc1; Indole3carbonyl(1-CH2COOH) = O=C(O)Cn1cc(C(=O)*)c2ccccc21; Phe(3-CH2NH2) = O=C([C@H](Cc1cccc(CN[*:3])c1)N[*:1])[*:2]; X7 = N=C(NCCC[C@@H](N[*:1])C(=O)[*:2])NCc1ccc2occc2c1; dArg(ω-Bn) = N=C(NCCC[C@@H](N)C(=O)O)NCc1ccccc1; Ala(morpholin-4-yl) = N[C@@H](CN1CCOCC1)C(=O)O; Benzoyl(3-OCH2COOH) = O=C(O)COc1cccc(C(=O)*)c1; Phe(3-CONH2) = NC(=O)c1cccc(C[C@H](N)C(=O)O)c1; Bip = N[C@@H](Cc1ccc(-c2ccccc2)cc1)C(=O)O; Phe(3-OMe) = COc1cccc(C[C@H](N)C(=O)O)c1; Pro(cis-4-F) = O=C(O)[C@@H]1C[C@H](F)CN1; X82 = C[C@@]1(C(=O)[*:2])CCN1[*:1]; 2Pal = N[C@@H](Cc1ccccn1)C(=O)O; Tic = O=C(O)[C@@H]1Cc2ccccc2CN1; 2Thi = N[C@@H](Cc1cccs1)C(=O)O; Cha = N[C@@H](CC1CCCCC1)C(=O)O; Chg = N[C@H](C(=O)O)C1CCCCC1; Tle = CC(C)(C)[C@H](N)C(=O)O; Sar = CNCC(=O)O

Each compound was assayed against TNFα (Homo sapiens, UniProt P01375) (assay: TNF-Induced HEK-Blue Assay). Details: not given.
Chain of TNFα (P01375 77-233 limits assumed): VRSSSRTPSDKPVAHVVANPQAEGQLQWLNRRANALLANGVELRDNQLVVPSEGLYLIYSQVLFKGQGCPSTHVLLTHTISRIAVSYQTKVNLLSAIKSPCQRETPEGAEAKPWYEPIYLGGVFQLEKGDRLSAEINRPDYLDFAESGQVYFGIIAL
Format: cell-based

| SMILES | IC50 [nM] |
| --- | --- |
| CC(C)C[C@@H]1NC(=O)[C@H](Cc2cccc(C(N)=O)c2)NC(=O)[C@H](C(C)C)NC(=O)[C@@H]2CCCN2C(=O)[C@H](C(C)C)NC(=O)[C@@H](CCCNC(=N)NCc2ccccc2)NC(=O)[C@H](CC(=O)O)NC(=O)[C@@H]2CCCN2C(=O)CN(C)C(=O)[C@H](Cc2ccc(-c3ccc(NC(=O)c4cn(CC(=O)O)c5ccccc45)cc3)cc2)NC(=O)[C@H](Cc2ccc(-c3ccccc3)cc2)NC(=O)[C@H](CN2CCOCC2)NC(=O)CSC[C@@H](C(=O)NCC(N)=O)NC1=O [Example 535] ({CH2CO}-[Ala(morpholin-4-yl)][Bip][Bip(4'-NH)](Indole3carbonyl(1-CH2COOH))[Sar]PD[dArg(ω-Bn)]VPV[Phe(3-CONH2)]LCG-NH2; thioether N-13) | < 50 |

Same assay, conditions: HEK-Blue-CD40L cells, NF-kB-driven secreted alkaline phosphatase reporter; TNFα 0.5 ng/ml; 18 h; read-out: TNF induced HEK-Blue assay IC50 value

| IC50 [nM] | SMILES |
| --- | --- |
| 50 to 200 | CC[C@H](C)[C@@H]1NC(=O)[C@@H](CCCNC(=N)N)NC(=O)[C@H](CC(=O)O)NC(=O)[C@H](Cc2cnc[nH]2)NC(=O)CN(C)C(=O)[C@H](Cc2ccc(-c3ccccc3)cc2)NC(=O)[C@H](Cc2ccc(-c3ccc(C(=O)NC)cc3)cc2)NC(=O)[C@H](CC2CCCCC2)NC(=O)CSC[C@@H](C(=O)NCC(N)=O)NC(=O)[C@H](CC(C)C)NC(=O)[C@H](Cc2cnc[nH]2)NC(=O)[C@H](C(C)C)NC(=O)[C@@H]2CCCN2C1=O [Example 397] ({CH2CO}-[Cha][Bip(4'-CONHMe)][Bip][Sar]HD[dR]IPVHLCG-NH2; thioether N-13) |
| 50 to 200 | CC(=O)Nc1ccc(-c2ccc(C[C@@H]3NC(=O)[C@H](Cc4ccc(-c5ccccc5)cc4)NC(=O)[C@H](CC4CCCCC4)NC(=O)CSC[C@@H](C(=O)NCC(N)=O)NC(=O)[C@H](CC(C)C)NC(=O)[C@H](Cc4ccc(O)cc4)NC(=O)[C@H](C4CCCCC4)NC(=O)[C@@H]4CCCN4C(=O)[C@H](C(C)C)NC(=O)[C@@H](CCCNC(=N)N)NC(=O)[C@H](CC(=O)O)NC(=O)[C@@H]4CCCN4C(=O)CN(C)C3=O)cc2)cc1 [Example 310] ({CH2CO}-[Cha][Bip][Bip(4'-NHAc)][Sar]PD[dR]VP[Chg]YLCG-NH2; thioether N-13) |
| < 50 | CC[C@H](C)[C@@H]1NC(=O)[C@@H](CCCNC(=N)NCc2ccc3occc3c2)NC(=O)[C@H](CC(=O)O)NC(=O)[C@H](Cc2cnc[nH]2)NC(=O)CN(C)C(=O)[C@H](Cc2ccc(-c3ccc(NC(=O)c4cccc(OCC(=O)O)c4)cc3)cc2)NC(=O)[C@H](Cc2ccc(-c3ccccc3)cc2)NC(=O)[C@H](CC2CCCCC2)NC(=O)CSC[C@@H](C(=O)NCC(N)=O)NC(=O)[C@H](CC(C)C)NC(=O)[C@H](Cc2cnc[nH]2)NC(=O)[C@H](C(C)C)NC(=O)[C@@H]2CCCN2C1=O [Example 499] ({CH2CO}-[Cha][Bip][Bip(4'-NH)](Benzoyl(3-OCH2COOH))[Sar]HD[X7]IPVHLCG-NH2; thioether N-13) |
| 50 to 200 | CC(C)C[C@@H]1NC(=O)[C@H](Cc2cccs2)NC(=O)[C@H](C(C)C)NC(=O)[C@@H]2CCCN2C(=O)[C@H](C(C)C)NC(=O)[C@@H](CCCNC(=N)N)NC(=O)[C@H](CC(=O)O)NC(=O)[C@H](Cc2ccccn2)NC(=O)CN(C)C(=O)[C@H](Cc2ccc(-c3ccc(NC(=O)c4ccc(CC(=O)O)cc4)cc3)cc2)NC(=O)[C@H](Cc2ccc(-c3ccc(C(=O)O)cc3)cc2)NC(=O)[C@H](CC2CCCCC2)NC(=O)CSC[C@@H](C(=O)NCC(N)=O)NC1=O [Example 612] ({CH2CO}-[Cha][Bip(4'-COOH)][Bip(4'-NHCO-C6H4-4-CH2COOH)][Sar][2Pal]D[dR]VPV[2Thi]LCG-NH2; thioether N-13) |
| 50 to 200 | CNC(=O)c1ccc(-c2ccc(C[C@@H]3NC(=O)[C@H](CC4CCCCC4)NC(=O)CSC[C@@H](C(=O)NCC(N)=O)NC(=O)[C@H](CC(C)C)NC(=O)[C@H](Cc4ccc(O)cc4)NC(=O)[C@H](C(C)C)NC(=O)[C@@H]4Cc5ccccc5CN4C(=O)[C@H](C(C)C)NC(=O)[C@@H](CCCNC(=N)N)NC(=O)[C@H](CC(=O)O)NC(=O)[C@@H]4CCCN4C(=O)CN(C)C(=O)[C@H](Cc4ccc(-c5ccc(NC(C)=O)cc5)cc4)NC3=O)cc2)cc1 [Example 386] ({CH2CO}-[Cha][Bip(4'-CONHMe)][Bip(4'-NHAc)][Sar]PD[dR]V[Tic]VYLCG-NH2; thioether N-13) |

Further lines, the compound ahead of its results:

| SMILES | IC50 [nM] |
| --- | --- |
| CC(C)C[C@@H]1NC(=O)[C@H](CCCNC(=N)N)NC(=O)[C@H](C(C)C)NC(=O)[C@@H]2CCCN2C(=O)[C@H](C(C)C)NC(=O)[C@@H](CCCNC(=N)NC[C@H](O)CO)NC(=O)[C@H](CC(=O)O)NC(=O)[C@@H]2CCCN2C(=O)CN(C)C(=O)[C@H](Cc2ccc(-c3ccc(NC(=O)c4nn(C)c5ccccc45)cc3)cc2)NC(=O)[C@H](Cc2ccc(-c3ccccc3)cc2)NC(=O)[C@H](CN2CCOCC2)NC(=O)CSC[C@@H](C(=O)NCC(N)=O)NC1=O [Example 476] ({CH2CO}-[Ala(morpholin-4-yl)][Bip][X5][Sar]PD[dArg(ω-(2S)-2,3-diOHpropyl)]VPVRLCG-NH2; thioether N-13) | < 50 |
| CC(=O)Nc1ccc(-c2ccc(C[C@@H]3NC(=O)[C@H](Cc4ccc(-c5ccc(C(=O)O)cc5)cc4)NC(=O)[C@H](CC4CCCCC4)NC(=O)CSC[C@@H](C(=O)NCC(N)=O)NC(=O)[C@H](CC(C)C)NC(=O)[C@H](Cc4cccc(CN)c4)NC(=O)[C@H](C(C)C)NC(=O)[C@@H]4CCCN4C(=O)[C@H](C(C)C)NC(=O)[C@@H](CCCNC(=N)N)NC(=O)[C@H](CC(=O)O)NC(=O)[C@@H]4CCCN4C(=O)CN(C)C3=O)cc2)cc1 [Example 254] ({CH2CO}-[Cha][Bip(4'-COOH)][Bip(4'-NHAc)][Sar]PD[dR]VPV[Phe(3-CH2NH2)]LCG-NH2; thioether N-13) | 200 to 2000 |
| CC(C)C[C@@H]1NC(=O)[C@H](Cc2ccc(O)cc2)NC(=O)[C@H](CC(C)C)NC(=O)[C@@H]2CCCN2C(=O)[C@H](C(C)C)NC(=O)[C@@H](CCCNC(=N)N)NC(=O)[C@H](CC(=O)O)NC(=O)[C@H](Cc2ccc(O)cc2)NC(=O)CN(C)C(=O)[C@H](Cc2ccc(-c3ccccc3)cc2)NC(=O)[C@H](Cc2ccc(-c3ccccc3)cc2)NC(=O)[C@H](CN2CCOCC2)NC(=O)CSC[C@@H](C(=O)NCC(N)=O)NC1=O [Example 149] ({CH2CO}-[Ala(morpholin-4-yl)][Bip][Bip][Sar]YD[dR]VPLYLCG-NH2; thioether N-13) | 50 to 200 |
| CC(C)C[C@@H]1NC(=O)[C@H](CCCNC(=N)N)NC(=O)[C@H](C(C)C)NC(=O)[C@@H]2C[C@H](F)CN2C(=O)[C@H](C(C)C)NC(=O)[C@H](CCCNC(=N)N)NC(=O)[C@H](CC(=O)O)NC(=O)[C@@H]2CCCN2C(=O)CN(C)C(=O)[C@H](Cc2ccc(-c3ccccc3)cc2)NC(=O)[C@H](Cc2ccc(-c3ccccc3)cc2)NC(=O)[C@H](Cc2ccccc2)NC(=O)CSC[C@@H](C(=O)NCC(N)=O)NC1=O [Example 43] ({CH2CO}-F[Bip][Bip][Sar]PDRV[Pro(cis-4-F)]VRLCG-NH2; thioether N-13) | 200 to 2000 |
| CC(C)C[C@@H]1NC(=O)[C@H](Cc2ccc(O)cc2)NC(=O)[C@H](C(C)C)NC(=O)[C@]2(C)CCN2C(=O)[C@H](C(C)C)NC(=O)[C@H](CCCNC(=N)N)NC(=O)[C@H](CC(=O)O)NC(=O)[C@H](Cc2ccc(O)cc2)NC(=O)CN(C)C(=O)[C@H](Cc2ccc(-c3ccccc3)cc2)NC(=O)[C@H](Cc2ccc(-c3ccccc3)cc2)NC(=O)[C@H](CN2CCOCC2)NC(=O)CSC[C@@H](C(=O)NCC(N)=O)NC1=O [Example 93] ({CH2CO}-[Ala(morpholin-4-yl)][Bip][Bip][Sar]YDRV[X82]VYLCG-NH2; thioether N-13) | 50 to 200 |
| CC(C)C[C@@H]1NC(=O)[C@H](Cc2cccc(C(N)=O)c2)NC(=O)[C@H](C(C)C)NC(=O)[C@@H]2CCCN2C(=O)[C@H](C(C)C)NC(=O)[C@@H](CCCNC(=N)N)NC(=O)[C@H](CC(=O)O)NC(=O)[C@H](Cc2ccc(O)cc2)NC(=O)CN(C)C(=O)[C@H](Cc2ccc(-c3ccccc3)cc2)NC(=O)[C@H](Cc2ccc(-c3ccccc3)cc2)NC(=O)[C@H](CN2CCOCC2)NC(=O)CSC[C@@H](C(=O)NCC(N)=O)NC1=O [Example 156] ({CH2CO}-[Ala(morpholin-4-yl)][Bip][Bip][Sar]YD[dR]VPV[Phe(3-CONH2)]LCG-NH2; thioether N-13) | 50 to 200 |
| CC[C@H](C)[C@@H]1NC(=O)[C@@H]2CCCN2C(=O)[C@H]([C@@H](C)CC)NC(=O)[C@@H](CCCNC(=N)N)NC(=O)[C@H](CC(=O)O)NC(=O)[C@H](Cc2ccccn2)NC(=O)CN(C)C(=O)[C@H](Cc2ccc(-c3ccc(NC(=O)c4nn(C)c5ccccc45)cc3)cc2)NC(=O)[C@H](Cc2ccc(-c3ccccc3)cc2)NC(=O)[C@H](C(C)(C)C)NC(=O)CSC[C@@H](C(=O)NCC(N)=O)NC(=O)[C@H](CC(C)C)NC(=O)[C@H](Cc2cccc(C(N)=O)c2)NC1=O [Example 335] ({CH2CO}-[Tle][Bip][X5][Sar][2Pal]D[dR]IPI[Phe(3-CONH2)]LCG-NH2; thioether N-13) | 50 to 200 |
| CC(=O)Nc1ccc(-c2ccc(C[C@@H]3NC(=O)[C@H](Cc4ccc(-c5ccc(C(=O)O)cc5)cc4)NC(=O)[C@H](CN4CCOCC4)NC(=O)CSC[C@@H](C(=O)NCC(N)=O)NC(=O)[C@H](CC(C)C)NC(=O)[C@H](CCCNC(=N)N)NC(=O)[C@H](C(C)C)NC(=O)[C@@H]4CCCN4C(=O)[C@H](C(C)C)NC(=O)[C@H](CCCNC(=N)N)NC(=O)[C@H](CC(=O)O)NC(=O)[C@H](Cc4ccc(O)cc4)NC(=O)CN(C)C3=O)cc2)cc1 [Example 191] ({CH2CO}-[Ala(morpholin-4-yl)][Bip(4'-COOH)][Bip(4'-NHAc)][Sar]YDRVPVRLCG-NH2; thioether N-13) | 50 to 200 |
| CC[C@H](C)[C@@H]1NC(=O)[C@@H](CCCNC(=N)N)NC(=O)[C@H](CC(=O)O)NC(=O)[C@H](Cc2cnc[nH]2)NC(=O)CN(C)C(=O)[C@H](Cc2ccc(-c3ccc(NC(C)=O)cc3)cc2)NC(=O)[C@H](Cc2ccc(-c3ccc(C(=O)O)cc3)cc2)NC(=O)[C@H](CC2CCCCC2)NC(=O)CSC[C@@H](C(=O)NCC(N)=O)NC(=O)[C@H](CC(C)C)NC(=O)[C@H](Cc2cccc(OC)c2)NC(=O)[C@H](C(C)C)NC(=O)[C@@H]2CCCN2C1=O [Example 282] ({CH2CO}-[Cha][Bip(4'-COOH)][Bip(4'-NHAc)][Sar]HD[dR]IPV[Phe(3-OMe)]LCG-NH2; thioether N-13) | 50 to 200 |
